Laboratory results reported in the supplement of paper PMC10307832.

Tests used:
Assay in all cases: relative viability (nuclei count vs DMSO), 5 days (fraction); higher = more cells survive
[1] = compound: C1CCC(CC1)N(CCNCCC2=C3C(=C(C=C2)O)NC(=O)CO3)C(=O)CCNCCC4=CC(=C(C=C4)Cl)Cl [AZ505] + O=C(c1cc(Cc2n[nH]c(=O)c3ccccc23)ccc1F)N1CCN(C(=O)C2CC2)CC1 [Olaparib] (partner 8 µM)
Outline: (§1)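 For relative viability, nuclei counts in treated wells were divided by those in vehicle wells. Lung cancer cell lines had been pin-tool dosed in 1536-well plates the day after seeding and cultured for 5 days, then fixed and stained in one step (final 0.05% Triton X-100, 1% formaldehyde, 1 ug/ml Hoechst) and imaged at 4×. Doses were one drug alone or a fixed anchor-drug dose plus five library-drug doses (not always all listed) in √10 steps, and values are duplicate-plate medians.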

[2] = compound: C1CCC(CC1)N(CCNCCC2=C3C(=C(C=C2)O)NC(=O)CO3)C(=O)CCNCCC4=CC(=C(C=C4)Cl)Cl [AZ505] + Nc1nc2[nH]cc(CCc3ccc(C(=O)N[C@@H](CCC(=O)O)C(=O)O)cc3)c2c(=O)[nH]1 [Pemetrexed] (partner 0.2 µM)
Outline: as §1

[3] = compound: Cn1c(=O)n(-c2ccc(C(C)(C)C#N)cc2)c2c3cc(-c4cnc5ccccc5c4)ccc3ncc21 [Dactolisib] + O=C(CCCCCCC(=O)Nc1ccccc1)NO [Vorinostat] (partner 1 µM)
Outline: as §1

[4] = compound: Cn1c(=O)n(-c2ccc(C(C)(C)C#N)cc2)c2c3cc(-c4cnc5ccccc5c4)ccc3ncc21 [Dactolisib] + CS(=O)(=O)N1CCN(Cc2cc3nc(-c4cccc5[nH]ncc45)nc(N4CCOCC4)c3s2)CC1 [Pictilisib] (partner 1 µM)
Outline: as §1

Cell Line	relative viability ([1]; first compound 0.08 µM)	relative viability ([1]; first compound 0.253 µM)	relative viability ([1]; first compound 0.8 µM)	relative viability ([1]; first compound 2.53 µM)	relative viability ([1]; first compound 8 µM)	relative viability ([2]; first compound 0.08 µM)	relative viability ([2]; first compound 0.253 µM)	relative viability ([2]; first compound 0.8 µM)	relative viability ([2]; first compound 2.53 µM)	relative viability ([2]; first compound 8 µM)	relative viability ([3]; first compound 0.002 µM)	relative viability ([3]; first compound 0.006325 µM)	relative viability ([3]; first compound 0.02 µM)	relative viability ([3]; first compound 0.06325 µM)	relative viability ([3]; first compound 0.2 µM)	relative viability ([4]; first compound 0.002 µM)	relative viability ([4]; first compound 0.006325 µM)	relative viability ([4]; first compound 0.02 µM)	relative viability ([4]; first compound 0.06325 µM)	relative viability ([4]; first compound 0.2 µM)
201T	0.851	0.857	0.82	0.862	0.846	0.343	0.342	0.403	0.345	0.31	0.987	0.981	0.976	0.622	0.729	0.753	0.661	0.661	0.538	0.539
A549	0.315	0.362	0.358	0.415	0.296	–	–	–	–	–	–	–	–	–	–	0.544	0.356	0.3	0.145	0.112
A-427	0.765	0.704	0.724	0.721	0.732	0.964	0.961	0.904	0.948	1.01	0.894	0.864	0.834	0.706	0.647	0.648	0.674	0.718	0.49	0.498
ABC-1	0.688	–	0.841	0.807	1.2	–	–	–	–	–	1.19	1.34	0.94	0.824	0.529	0.675	0.618	0.627	0.402	0.331
BEN	0.998	1.04	1.04	1.04	1.21	0.682	0.678	0.871	0.746	0.786	0.555	0.577	0.562	0.478	0.383	0.505	0.529	0.463	0.4	0.282
CAL-12T	0.588	0.777	0.736	0.706	0.696	1.08	1.2	1.26	1.29	1.46	0.798	0.913	0.722	0.209	0.199	0.407	0.408	0.358	0.251	0.254
COR-L23	0.282	0.344	0.32	0.374	0.38	0.185	0.204	0.201	0.185	0.186	0.367	0.363	0.277	0.157	0.161	0.925	0.656	0.546	0.177	0.151
COR-L 105	0.405	0.657	0.698	0.715	0.554	0.979	1.05	1.06	1.1	1.14	0.677	0.88	0.828	0.402	0.394	0.423	0.364	0.377	0.332	0.305
Calu-6	0.543	0.59	0.525	0.504	0.608	–	–	–	–	–	–	–	–	–	–	0.935	0.855	0.729	0.414	0.352
ChaGo-K-1	0.404	0.439	0.431	0.402	0.469	0.26	0.268	0.28	0.252	0.258	0.724	0.821	0.719	0.623	0.757	0.723	0.744	0.491	0.923	0.552
EBC-1	0.644	0.693	0.673	0.69	0.642	–	–	–	–	–	–	–	–	–	–	0.332	0.279	0.279	0.204	0.171
EKVX	–	0.895	0.764	0.874	0.916	–	0.385	0.384	0.41	0.403	0.794	0.72	0.657	0.359	0.273	0.402	0.433	0.37	0.293	0.241
EMC-BAC-2	0.453	0.541	0.487	0.524	0.437	0.412	0.491	0.417	0.499	0.451	0.492	0.442	0.353	0.266	0.219	0.528	0.542	0.512	0.379	0.341
EPLC-272H	0.638	0.664	0.654	0.782	0.628	0.246	0.318	0.254	0.245	0.232	0.571	0.409	0.261	0.36	0.159	0.316	0.239	0.332	0.373	0.24
H3255	0.55	0.564	0.569	0.601	0.597	0.521	0.556	0.602	0.571	0.616	0.936	0.783	0.706	0.811	0.594	0.513	0.44	0.473	0.35	0.339
HARA	0.451	–	0.734	0.631	0.761	0.208	–	0.213	0.24	0.228	0.578	0.461	0.523	0.41	0.11	0.469	0.34	0.366	0.277	0.236
HCC-15	0.639	0.723	0.75	0.73	0.736	0.209	0.231	0.22	0.218	0.24	0.961	0.786	0.85	0.498	0.373	0.762	0.746	0.707	0.392	0.343
HCC-44	0.928	1.01	1.02	1	1.05	0.683	0.643	0.659	0.638	0.673	1.12	1.14	1.21	1.14	0.885	0.672	0.536	0.709	0.536	0.368
